# Results: US8048862B2, “Macrocyclic inhibitors of hepatitis C virus replication” (priority 2008, dated 2011)
# Like-named read-outs stand apart in the source and are kept apart here.
# Tests used:
# NS3/NS4 complexes = NS3/NS4 complexes (Hepatitis C virus genotype 1a, UniProt P27958); assay: NS3/NS4 inhibition activity (IC50); format: biochemical
# Summary of the method: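 NS3/NS4 complexes were formed and compound inhibitory concentrations determined at ambient temperature (23 °C). The buffer contained 50 mM Tris-HCl pH 7.5, 15% glycerol, 0.6 mM LDAO, 25 μM NS4A peptide and 10 mM DTT.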
# hepatitis C replicon = hepatitis C replicon EC50; format: cell-based; conditions: Hepatitis C virus
# From the text: NS3-NS4 inhibition activity can be determined using known assay methods.
# [1] = Table 3, hepatitis C replicon, read-out: EC50
# NS3/NS4 complexes, sequence (P27958 1027-1657): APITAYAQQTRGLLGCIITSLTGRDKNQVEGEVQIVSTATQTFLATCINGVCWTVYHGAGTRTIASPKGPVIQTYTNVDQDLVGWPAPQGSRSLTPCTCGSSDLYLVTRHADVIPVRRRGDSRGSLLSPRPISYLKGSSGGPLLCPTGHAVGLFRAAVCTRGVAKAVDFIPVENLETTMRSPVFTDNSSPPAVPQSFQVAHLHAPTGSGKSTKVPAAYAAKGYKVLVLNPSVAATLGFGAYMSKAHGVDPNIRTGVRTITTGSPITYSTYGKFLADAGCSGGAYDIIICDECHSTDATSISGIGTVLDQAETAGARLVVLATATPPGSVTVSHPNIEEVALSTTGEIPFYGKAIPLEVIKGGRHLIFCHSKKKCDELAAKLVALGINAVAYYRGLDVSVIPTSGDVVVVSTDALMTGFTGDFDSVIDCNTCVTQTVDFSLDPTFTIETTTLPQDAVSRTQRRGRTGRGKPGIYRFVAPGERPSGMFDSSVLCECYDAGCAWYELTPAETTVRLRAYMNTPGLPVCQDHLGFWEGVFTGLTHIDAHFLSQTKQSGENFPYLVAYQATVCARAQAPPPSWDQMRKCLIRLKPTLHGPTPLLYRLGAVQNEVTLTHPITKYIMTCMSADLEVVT
# NS3/NS4 complexes, sequence (P27958 1658-1711): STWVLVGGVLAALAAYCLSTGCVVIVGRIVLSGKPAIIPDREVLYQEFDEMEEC
Structure (SMILES),"IC50 (NS3/NS4 complexes; Table 3, read-out: IC50)",EC50 (hepatitis C replicon; [1]),"IC50 (NS3/NS4 complexes; IC50, Table 3)",EC50 (hepatitis C replicon)
CC(C)(C)OC(=O)N[C@H]1CCCCC/C=C\[C@@H]2C[C@@]2(C(=O)NS(=O)(=O)C2CC2)NC(=O)[C@@H]2C[C@@H](Oc3nc4ccc(Cl)cc4s3)CN2C1=O [Compound 1018],< 10 nM,10 to 100 nM,,
CC(C)(C)OC(=O)N[C@H]1CCCCC/C=C\[C@@H]2C[C@@]2(C(=O)NOc2ccccc2)NC(=O)[C@@H]2C[C@@H](Oc3nc4ccccc4o3)CN2C1=O [Compound 1027],> 100 nM,> 100 nM,,
CC(C)(C)OC(=O)N[C@H]1CCCCC/C=C\[C@@H]2C[C@@]2(C(=O)NS(=O)(=O)C2(C)CC2)NC(=O)[C@@H]2C[C@@H](Oc3nc4ccccc4o3)CN2C1=O [Compound 1028],< 10 nM,10 to 100 nM,,
CC(C)(C)OC(=O)N[C@H]1CCCCC/C=C\[C@@H]2C[C@@]2(C(=O)NS(=O)(=O)C2CC2)NC(=O)[C@@H]2C[C@@H](Oc3nc4ccccc4o3)CN2C1=O [Compound 1029],< 10 nM,10 to 100 nM,,
Cc1ccc2oc(O[C@@H]3C[C@H]4C(=O)N[C@]5(C(=O)NS(=O)(=O)C6CC6)C[C@H]5/C=C\CCCCC[C@H](NC(=O)OC(C)(C)C)C(=O)N4C3)nc2c1 [Compound 1030],< 10 nM,10 to 100 nM,,
Cc1cccc2oc(O[C@@H]3C[C@H]4C(=O)N[C@]5(C(=O)NS(=O)(=O)C6CC6)C[C@H]5/C=C\CCCCC[C@H](NC(=O)OC(C)(C)C)C(=O)N4C3)nc12 [Compound 1031],< 10 nM,10 to 100 nM,,
CC(C)(C)OC(=O)N[C@H]1CCCCC/C=C\[C@@H]2C[C@@]2(C(=O)NS(=O)(=O)C2CC2)NC(=O)[C@@H]2C[C@@H](Oc3nc4cc(Cl)ccc4o3)CN2C1=O [Compound 1032],< 10 nM,> 100 nM,,
Cc1ccc2nc(O[C@@H]3C[C@H]4C(=O)N[C@]5(C(=O)NS(=O)(=O)C6CC6)C[C@H]5/C=C\CCCCC[C@H](NC(=O)OC(C)(C)C)C(=O)N4C3)oc2c1 [Compound 1033],< 10 nM,10 to 100 nM,,
CC(C)(C)OC(=O)N[C@H]1CCCCC/C=C\[C@@H]2C[C@@]2(C(=O)NS(=O)(=O)C2CC2)NC(=O)[C@@H]2C[C@@H](Oc3nc4cc(F)ccc4o3)CN2C1=O [Compound 1034],< 10 nM,10 to 100 nM,,
COc1ccc2oc(O[C@@H]3C[C@H]4C(=O)N[C@]5(C(=O)NS(=O)(=O)C6CC6)C[C@H]5/C=C\CCCCC[C@H](NC(=O)OC(C)(C)C)C(=O)N4C3)nc2c1 [Compound 1035],< 10 nM,> 100 nM,,
CC(C)(C)OC(=O)N[C@H]1CCCCC/C=C\[C@@H]2C[C@@]2(C(=O)NS(=O)(=O)C2CC2)NC(=O)[C@@H]2C[C@@H](Oc3nc4ccc(Cl)cc4o3)CN2C1=O [Compound 1036],< 10 nM,> 100 nM,,
CC(C)(C)OC(=O)N[C@H]1CCCCC/C=C\[C@@H]2C[C@@]2(C(=O)NS(=O)(=O)C2CC2)NC(=O)[C@@H]2C[C@@H](Oc3nc4ccc(F)cc4o3)CN2C1=O [Compound 1037],< 10 nM,> 100 nM,,
CC(C)(C)OC(=O)N[C@H]1CCCCC/C=C\[C@@H]2C[C@@]2(C(=O)NS(=O)(=O)C2CC2)NC(=O)[C@@H]2C[C@@H](Oc3nc4cccc(F)c4o3)CN2C1=O [Compound 1038],< 10 nM,10 to 100 nM,,
Cc1cccc2nc(O[C@@H]3C[C@H]4C(=O)N[C@]5(C(=O)NS(=O)(=O)C6CC6)C[C@H]5/C=C\CCCCC[C@H](NC(=O)OC(C)(C)C)C(=O)N4C3)sc12 [Compound 1040],< 10 nM,< 10 nM,,
CC(C)(C)OC(=O)N[C@H]1CCCCC/C=C\[C@@H]2C[C@@]2(C(=O)NS(=O)(=O)C2(C)CC2)NC(=O)[C@@H]2C[C@@H](Oc3nc4cc(Cl)ccc4o3)CN2C1=O [Compound 1046],< 10 nM,> 100 nM,,
CCn1c(O[C@@H]2C[C@H]3C(=O)N[C@]4(C(=O)NS(=O)(=O)C5(C)CC5)C[C@H]4/C=C\CCCCC[C@H](NC(=O)OC(C)(C)C)C(=O)N3C2)nc2ccccc21 [Compound 1048],< 10 nM,< 10 nM,,
CC(C)(C)OC(=O)N[C@H]1CCCCC/C=C\[C@@H]2C[C@@]2(C(=O)NS(=O)(=O)C2(C)CC2)NC(=O)[C@@H]2C[C@@H](Oc3nc4ccccc4n3Cc3ccccc3)CN2C1=O [Compound 1050],< 10 nM,10 to 100 nM,,
CC(C)(C)OC(=O)N[C@H]1CCCCC/C=C\[C@@H]2C[C@@]2(C(=O)NS(=O)(=O)C2CC2)NC(=O)[C@@H]2C[C@@H](Oc3nc4ccccc4n3Cc3ccccc3)CN2C1=O [Compound 1051],< 10 nM,10 to 100 nM,,
CC(C)(C)OC(=O)N[C@H]1CCCCC/C=C\[C@@H]2C[C@@]2(C(=O)NCCC(=O)NCc2ccccc2)NC(=O)[C@@H]2C[C@@H](OC(=O)N3Cc4cccc(F)c4C3)CN2C1=O [Compound 1052],> 100 nM,> 100 nM,,
CC(C)(C)OC(=O)N[C@H]1CCCCC/C=C\[C@@H]2C[C@@]2(C(=O)NCC(=O)NCc2ccccc2)NC(=O)[C@@H]2C[C@@H](OC(=O)N3Cc4cccc(F)c4C3)CN2C1=O [Compound 1053],,,10 to 100 nM,> 100 nM

Structure (SMILES),"IC50 (NS3/NS4 complexes; Table 3, read-out: IC50)",EC50 (hepatitis C replicon; [1]),"IC50 (NS3/NS4 complexes; IC50, Table 3)",EC50 (hepatitis C replicon)
CC(C)(C)OC(=O)N[C@H]1CCCCC/C=C\[C@@H]2C[C@@]2(C(=O)N2CCC[C@@H]2C(=O)NCc2ccccc2)NC(=O)[C@@H]2C[C@@H](OC(=O)N3Cc4cccc(F)c4C3)CN2C1=O [Compound 1057],,,> 100 nM,> 100 nM
CC(C)(C)OC(=O)N[C@H]1CCCCC/C=C\[C@@H]2C[C@@]2(C(=O)NCCC(=O)NCc2ccccc2)NC(=O)[C@@H]2C[C@@H](O)CN2C1=O [Compound 1058],> 100 nM,> 100 nM,,
CC(=O)O[C@@H]1C[C@H]2C(=O)N[C@]3(C(=O)N4CCC[C@H]4C(=O)NCc4ccccc4)C[C@H]3/C=C\CCCCC[C@H](NC(=O)OC(C)(C)C)C(=O)N2C1 [Compound 1061],,> 100 nM,> 100 nM,
CO[C@@H]1C[C@H]2C(=O)N[C@]3(C(=O)NCCC(=O)NCc4ccccc4)C[C@H]3/C=C\CCCCC[C@H](NC(=O)OC(C)(C)C)C(=O)N2C1 [Compound 1062],> 100 nM,> 100 nM,,
CN(C)C(=O)O[C@@H]1C[C@H]2C(=O)N[C@]3(C(=O)NS(=O)(=O)C4(C)CC4)C[C@H]3/C=C\CCCCC[C@H](NC(=O)OC(C)(C)C)C(=O)N2C1 [Compound 1065],< 10 nM,,,> 100 nM
CC(=O)O[C@@H]1C[C@H]2C(=O)N[C@]3(C(=O)NS(=O)(=O)C4CC4)C[C@H]3/C=C\CCCCC[C@H](NC(=O)OC(C)(C)C)C(=O)N2C1 [Compound 1071],< 10 nM,> 100 nM,,
CC(C)(C)OC(=O)N[C@H]1CCCCC/C=C\[C@@H]2C[C@@]2(C(=O)NS(=O)(=O)C2(C)CC2)NC(=O)[C@@H]2C[C@@H](OC(=O)N3CCCC3)CN2C1=O [Compound 1072],< 10 nM,> 100 nM,,
COc1ccc2c(O[C@@H]3C[C@H]4C(=O)N[C@]5(C(=O)NS(=O)(=O)C6CC6)C[C@H]5/C=C\CCCCC[C@H](NC(=O)OC(C)(C)C)C(=O)N4C3)cc(-c3ccccc3)nc2c1 [Compound 1075],< 10 nM,< 10 nM,,
CC(C)n1c(O[C@@H]2C[C@H]3C(=O)N[C@]4(C(=O)NS(=O)(=O)C5(C)CC5)C[C@H]4/C=C\CCCCC[C@H](NC(=O)OC(C)(C)C)C(=O)N3C2)nc2ccccc21 [Compound 1077],< 10 nM,< 10 nM,,
COc1ccc2c(O[C@@H]3C[C@H]4C(=O)N[C@]5(C(=O)NS(=O)(=O)C6(C)CC6)C[C@H]5/C=C\CCCCC[C@H](NC(=O)OC(C)(C)C)C(=O)N4C3)cc(-c3nc(C(C)C)cs3)nc2c1C [Compound 1078],< 10 nM,< 10 nM,,
CC(C)(C)OC(=O)N[C@H]1CCCCC/C=C\[C@@H]2C[C@@]2(C(=O)NS(=O)(=O)C2(C)CC2)NC(=O)[C@@H]2C[C@@H](Oc3nc4ccccc4[nH]3)CN2C1=O [Compound 1079],< 10 nM,,,> 100 nM
CCn1c(O[C@@H]2C[C@H]3C(=O)N[C@]4(C(=O)NS(=O)(=O)C5(C)CC5)C[C@H]4CCCCCCC[C@H](NC(=O)OC(C)(C)C)C(=O)N3C2)nc2ccccc21 [Compound 1080],< 10 nM,< 10 nM,,
CC(C)(C)OC(=O)N[C@H]1CCCCCCC[C@@H]2C[C@@]2(C(=O)NS(=O)(=O)C2(C)CC2)NC(=O)[C@@H]2C[C@@H](OC(=O)N3Cc4cccc(F)c4C3)CN2C1=O [Compound 1081],< 10 nM,< 10 nM,,
CC(C)(C)OC(=O)N[C@H]1CCCCC/C=C\[C@@H]2C[C@@]2(C(=O)NS(=O)(=O)CC(=O)Nc2ccccc2)NC(=O)[C@@H]2C[C@@H](OC(=O)N3Cc4cccc(F)c4C3)CN2C1=O [Compound 1082],< 10 nM,,,> 100 nM
CC(C)(C)OC(=O)N[C@H]1CCCCC/C=C\[C@@H]2C[C@@]2(C(=O)NS(=O)(=O)c2ccccc2OCC(N)=O)NC(=O)[C@@H]2C[C@@H](OC(=O)N3Cc4cccc(F)c4C3)CN2C1=O [Compound 1083],< 10 nM,> 100 nM,,
CNC(=O)COc1ccccc1S(=O)(=O)NC(=O)[C@@]12C[C@H]1/C=C\CCCCC[C@H](NC(=O)OC(C)(C)C)C(=O)N1C[C@H](OC(=O)N3Cc4cccc(F)c4C3)C[C@H]1C(=O)N2 [Compound 1084],< 10 nM,> 100 nM,,
O=C(N[C@H]1CCCCC/C=C\[C@@H]2C[C@@]2(C(=O)NS(=O)(=O)C2CC2)NC(=O)[C@@H]2C[C@@H](OC(=O)N3Cc4cccc(F)c4C3)CN2C1=O)O[C@@H]1C[C@@H]2C[C@@H]2C1 [Compound 1085],< 10 nM,< 10 nM,,
CC(C)(C)OC(=O)N[C@H]1CCCCC/C=C\[C@@H]2C[C@@]2(C(=O)NS(=O)(=O)Cc2ccccc2)NC(=O)[C@@H]2C[C@@H](OC(=O)N3Cc4cccc(F)c4C3)CN2C1=O [Compound 1086],< 10 nM,> 100 nM,,
CO[C@@H]1C[C@H]2C(=O)N[C@]3(C(=O)NS(=O)(=O)C4(C)CC4)C[C@H]3/C=C\CCCCC[C@H](NC(=O)OC(C)(C)C)C(=O)N2C1 [Compound 1091],> 100 nM,> 100 nM,,
CC(C)(C)OC(=O)N[C@H]1CCCCC/C=C\[C@@H]2C[C@@]2(C(=O)NS(=O)(=O)c2ccccc2OCC(N)=O)NC(=O)[C@@H]2C[C@@H](O)CN2C1=O [Compound 1093],> 100 nM,> 100 nM,,
